The text below walks through data of patent publication US20030216569A1, “Method of making HIV protease inhibitors” (priority 1993, published 2003).

In one assay the target is HIV-1 protease (Human immunodeficiency virus type 1 group M subtype B, UniProt P04585). In words: Fluorescence HIV-1 Protease Inhibitor Assay (Pandex). Type of assay: biochemical. More on the design: made in house; host or cells: E. coli K12 L507/pHP10D (NRRL B-18560).
In assay [1] the test system is Viral SN123 infected CEM cells.
Setting [2] is: normalized to positive control (=1.0), * = a calculated average, read-out: Fluorescence Assay IC50 in ng/mL (converted).
The mark [3] stands for this setting: value as run, 35B value of the same run in footnote or parentheses, read-out: Pandex IC50 ng/ml (converted).
[4] abbreviates: Human immunodeficiency virus 1, CCRF-CEM, read-out: Whole cell IC50 nM, CEM cells, values in parentheses are 35B in same assay.
The mark [5] stands for this setting: Human immunodeficiency virus 1, CCRF-CEM, read-out: Whole cell IC90 nM, CEM cells, values in parentheses are 35B in same assay.
Where [6] appears, read: normalized to positive control (=1.0), * = a calculated average.
Where [7] appears, read: value as run, 35B value of the same run in footnote or parentheses.
Where [8] appears, read: read-out: Whole cell IC50 nM, CEM cells, values in parentheses are 35B in same assay.
Setting [9] is: read-out: Whole cell IC90 nM, CEM cells, values in parentheses are 35B in same assay.

Where “and” joins values, the source holds several entries; their conditions need not be identical. Equal values may be shown once. Read-outs that look alike come from different tables or passages of the source. Marks after values point to notes of the source that are not given here.

Take `CC(C)(C)NC(=O)C1CC2CCCCC2CN1CC(O)C(Cc1ccccc1)NC(=O)c1ccc[n+]([O-])c1` (stereo not drawn) [Example 5, [3S-(3R*,4aR*,8aR*,2′S*,3′R*)]-2-[2′-Hydroxy-3′-phenylmethyl-4′-aza-5′-oxo-5′-(pyrid-3″yl-N-oxidyl)pentyl] decahydroisoquinoline-3-N-t-butylcarboxamide]: the figures for the IC50 at HIV-1 protease (setting [2]) and at HIV-1 protease (setting [3]) were 5030 nM and 1910 nM, respectively.
Broadly, the IC90 is the concentration needed for an effect of 90%. With `CC(C)c1c(O)cccc1C(=O)NC(Cc1ccccc1)C(O)CN1CC2CCCCC2CC1C(=O)NC(C)(C)C` (stereo not drawn) [Example 20, [3S-(3R*,4aR*,8aR*,2′S*,3′R*)]-2-[2′-Hydroxy-3′-phenylmethyl-4′-aza-5′-oxo-5′-(2″-iospropyl-3″-hydroxyphenyl)pentyl] decahydroisoquinoline-3-N-t-butylcarboxamide], the IC50 at HIV-1 protease (setting [2]) was 11.5 nM; on HIV-1 protease (setting [3]), 151 nM; in assay [1] (setting [4]), 186 nM. Besides, in assay [1] (setting [5]), the IC90 is 671 nM.
Turning to `Cc1c(N)cccc1C(=O)NC(Cc1ccccc1)C(O)CN1CC2CCCCC2CC1C(=O)NC(C)(C)C` (stereo not drawn) [Example 18, [3S-(3R*,4aR*,8aR*,2′S*,3′R*)]-2-[2′-Hydroxy-3′-phenylmethyl-4′-aza-5′-oxo-5′-(2″-methyl-3″-aminophenyl)pentyl] decahydroisoquinoline-3-N-t-butylcarboxamide], the IC50 at HIV-1 protease (setting [2]) was 126 nM; at HIV-1 protease (setting [3]) it was 17.8 nM; in assay [1] (setting [4]), 739 nM.
For the molecule `Cc1c(O)cccc1C(=O)NC(Cc1ccccc1)C(O)CN1CC2CCCCC2CC1C(=O)NC(C)(C)C` (stereo not drawn) [Example 23, [3S-(3R*,4aR*,8aR*,2′S*,3′R*)]-2-[2′-Hydroxy-3′-phenylmethyl-4′-aza-5′-oxo-5′-(2″-methyl-3″-hydroxyphenyl)pentyl] decahydroisoquinoline-3-N-t-butylcarboxamide], on HIV-1 protease (setting [6]), the “Fluorescence Assay IC50” value is reported as 0.25 ng/mL. On HIV-1 protease (setting [7]), the “Pandex IC50 ng/ml” value was 0.2^c ng/ml and 0.16^d ng/ml and 0.2^b ng/ml. For the same molecule, the IC50 in assay [1] (setting [8]) was determined as 2.39 nM. For the same molecule, the IC90 in assay [1] (setting [9]) is 19 nM.
Turning to `CCCc1c(O)cccc1C(=O)NC(Cc1ccccc1)C(O)CN1CC2CCCCC2CC1C(=O)NC(C)(C)C` (stereo not drawn) [Example 22, [3S-(3R*,4aR*,8aR*,2′S*,3′R*)]-2-[2′-Hydroxy-3′-phenylmethyl-4′-aza-5′-oxo-5′-(2″-propyl-3″-hydroxyphenyl)pentyl] decahydroisoquinoline-3-N-t-butylcarboxamide], the IC50 at HIV-1 protease (setting [2]) is 1.29 nM; at HIV-1 protease (setting [3]), 124 nM; in assay [1] (setting [4]) it was 400 nM. The IC90 in assay [1] (setting [5]) stood at 798 nM.
For `CC(C)(C)NC(=O)C1CC2CCCCC2CN1CC(O)C(Cc1ccccc1)NC(=O)c1c(Cl)ccc(O)c1Cl` (stereo not drawn) [Example 17, [3S-(3R*,4aR*,8aR*,2′S*,3′R*)]-2-[2′-Hydroxy-3′-phenylmethyl-4′-aza-5′-oxo-5′-(2″,6″-dichloro-3″-hydroxyphenyl)pentyl] decahydroisoquinoline-3-N-t-butylcarboxamide], the “Fluorescence Assay IC50 in ng/mL” value at HIV-1 protease (setting [6]) was 269* ng/mL. In addition, the “Pandex IC50 ng/ml” value at HIV-1 protease (setting [7]) is on record as 346^b ng/ml.
For `CCc1c(O)cccc1C(=O)NC(Cc1ccccc1)C(O)CN1CC2CCCCC2CC1C(=O)NC(C)(C)C` (stereo not drawn) [Example 3, [3S-(3R*,4aR*,8aR*,2′S*,3′R*)]-2-[2′-Hydroxy-3′-phenylmethyl-4′-aza-5′-oxo-5′-(2″-ethyl-3″-hydroxyphenyl)pentyl] decahydroisoguinoline-3-N-t-butylcarboxamide], the IC50 at HIV-1 protease (setting [2]) was 44 nM; at HIV-1 protease (setting [3]) it was 21.1 nM; in assay [1] (setting [4]) it was 96.1 nM. In assay [1] (setting [5]), the IC90 amounted to 286 nM.
With `Cc1c(O)cccc1C(=O)NC(Cc1ccccc1)C(O)CN1CC2CCCCC2CC1C(=O)NC(C)(C)C` (stereo not drawn) [Example 12, [3S-(3R*,4aR*,8aR*,2′S*,3′R*)]-2-[2′-Hydroxy-3′-phenylmethyl-4′-aza-5′-oxo-5′-(2″-methyl-3″-hydroxyphenyl)pentyl] decahydroisoquinoline-3-N-t-butylcarboxamide], the IC50 on HIV-1 protease (setting [2]) is 15.5 nM; on HIV-1 protease (setting [3]) it was 21.3 nM and 5.23 nM and 17.5 nM; in assay [1] (Human immunodeficiency virus 1, CCRF-CEM, read-out: Whole cell IC50 nM, CEM cells, tested as the mesylate salt), 35.7 nM; in assay [1] (setting [4]), 15 nM; in assay [1] (setting [8]), 22.3 nM. Further, the IC90 was determined as 91.8 nM in assay [1] (Human immunodeficiency virus 1, CCRF-CEM, read-out: Whole cell IC90 nM, CEM cells, tested as the mesylate salt); 47.8 nM in assay [1] (setting [5]); 73.2 nM in assay [1] (setting [9]).
`CC(C)(C)NC(=O)C1CC2CCCCC2CN1CC(O)C(Cc1ccccc1)NC(=O)c1cccc(O)c1F` (stereo not drawn) [Example 1, [3S-(3R*,4aR*,8aR*,2′S*,3′R*)]-2-[2′-Hydroxy-3′-phenylmethyl-4′-aza-5′-oxo-5′-(2″-fluoro-3″-hydroxyphenyl)pentyl]decahydroisoquinoline-3-N-t-butylcarboxamide]: the IC50 at HIV-1 protease (setting [2]) was 1780 nM; on HIV-1 protease (setting [3]), 856 nM.
`Cc1c(O)cccc1C(=O)N[C@@H](CSc1ccc2ccccc2c1)[C@H](O)CN1CCCC[C@H]1C(=O)NC(C)(C)C` [Example 25, [2S-(2R*,2′S*,3′S*)]-1-[2′-Hydroxy-3′-(naphth-2-ylthiomethyl-4′-aza-5′-oxo-5′-(2″-methyl-3″-hydroxyphenyl)pentyl]piperidine-2-N-t-butylcarboxamide]: the IC50 on HIV-1 protease (setting [2]) is 5.68 nM; at HIV-1 protease (setting [3]), 3.55 nM and 25.4 nM.
Turning to “[3S-(3R*,4aR*,8aR*,2′S*,3′S*)]-2-[2′-Hydroxy-3′-phenylmethyl-4′-aza-5′-oxo-5′-[2″-methyl-3″-N-(methylsulfonyl)amino-phenyl)]pentyl] decahydroisoguinoline-3-N-t-butylcarboxamide [Example 36]”, the “Fluorescence Assay IC50” value at HIV-1 protease (setting [6]) is given as 62 ng/mL. Besides, the “Pandex IC50 ng/ml” value at HIV-1 protease (setting [7]) is 93^e ng/ml.
Regarding `CCCCc1c(O)cccc1C(=O)NC(Cc1ccccc1)C(O)CN1CC2CCCCC2CC1C(=O)NC(C)(C)C` (stereo not drawn) [Example 21, [3S-(3R*,4aR*,8aR*,2′S*,3′R*)]-2-[2′-Hydroxy-3′-phenylmethyl-4′-aza-5′-oxo-5′-(2″-butyl-3′″-hydroxyphenyl)pentyl] decahydroisoquinoline-3-N-t-butylcarboxamide], the values for the IC50 (at HIV-1 protease (setting [2]); at HIV-1 protease (setting [3]); in assay [1] (setting [4])) were 16.3 nM, 13.7 nM and 414 nM, respectively. Further, in assay [1] (setting [5]), the IC90 is 886 nM.
Regarding `CC(C)(C)NC(=O)C1CC2CCCCC2CN1CC(O)C(Cc1ccccc1)NC(=O)c1cccnc1Cl` (stereo not drawn) [Example 2, [3S-(3R*,4aR*,8aR*,2′S*,3′R*)]-2-[2′-Hydroxy-3′-phenylmethyl-4′-aza-5′-oxo-5′-(2″-chloro-pyrid-3″-yl)pentyl] decahydroisoquinoline-3-N-t-butylcarboxamide], the IC50 at HIV-1 protease (setting [2]) was 2000 nM; on HIV-1 protease (setting [3]) it was 963 nM.
Consider `CC(C)(C)NC(=O)C1CC2CCCCC2CN1CC(O)C(Cc1ccccc1)NC(=O)c1ccccc1C(F)(F)F` (stereo not drawn) [Example 15, [3S-(3R*,4aR*,8aR*,2′S*,3′R*)]-2-[2′-Hydroxy-3′-phenylmethyl-4′-aza-5′-oxo-5′-(2″-trifluoromethylphenyl)pentyl] decahydroisoquinoline-3-N-t-butylcarboxamide], for which the IC50 on HIV-1 protease (setting [2]) was 657 nM; on HIV-1 protease (setting [3]), 315 nM.
As to `CC(C)(C)NC(=O)C1CC2CCCCC2CN1CC(O)C(Cc1ccccc1)NC(=O)c1cccc(O)c1Cl` (stereo not drawn) [Example 11, [3S-(3R*,4aR*,8aR*,2′S*,3′R*)]-2-[2′-Hydroxy-3′-phenylmethyl-4′-aza-5′-oxo-5′-(2″-chloro-3″-hydroxyphenyl)pentyl] decahydroisoquinoline-3-N-t-butylcarboxamide], the IC50 on HIV-1 protease (setting [2]) was 9.17 nM; at HIV-1 protease (setting [3]) it was 24.6 nM; in assay [1] (setting [4]) it was 114 nM.
As to `Cc1c(O)cccc1C(=O)NC(CSc1ccc2ccccc2c1)C(O)CN1CC2CCCCC2CC1C(=O)NC(C)(C)C` (stereo not drawn) [Example 24, [3S-(3R*,4aR*,8aR*,2′S*,3′R*)]-2-[2′-Hydroxy-3′-(naphth-2-ylthiomethyl)-4′-aza-5′-oxo-5′-(2″-methyl-3″-hydroxyphenyl)pentyl] decahydroisoquinoline-3-N-t-butylcarboxamide], on HIV-1 protease (at 20 ng/ml), the “Pandex % at 20 ng/ml” value is 84%/20^d. Moreover, the IC50 on HIV-1 protease (setting [2]) was 9.39 nM; at HIV-1 protease (setting [3]) it was 4.53 nM; in assay [1] (setting [4]), 25 nM.
`Cc1c(O)cccc1C(=O)N[C@@H](Cc1ccccc1)[C@H](O)CN1CCN(Cc2cccnc2)C[C@H]1C(=O)NC(C)(C)C` [Example 26, [2S-(2R*,2′S*,3′R*)]-1-[2′-Hydroxy-3′-phenylmethyl-4′-aza-5′-oxo-5′-(2″-methyl-3″-hydroxyphenyl)pentyl]-4-(pyrid-3′″-ylmethyl) piperazine-2-N-t-butylcarboxamide]: the IC50 at HIV-1 protease (setting [2]) was 5.4 nM; on HIV-1 protease (setting [3]), 4.01 nM; in assay [1] (setting [4]), 56 nM. The IC90 in assay [1] (setting [5]) turned out to be 166 nM.
